{"source": "patent US6337417B1", "about": "“N-phenyltetrahydrophthalamic acid derivatives, methods of producing same, and herbicides containing same as effective components” (Central Glass Co., Ltd., priority 1994, dated 2002)", "assay_type_in_all_cases": "in vivo", "design_in_all_cases": "key: 5: completely killed; 4: seriously injured; 3: considerably injured; 2: somewhat injured; 1: slightly injured; 0: not injured (normally grown)", "key": {"[1]": {"system": "tamagayatsuri (small-flowered umbrellaplant, Cyperus difformis)", "experiment": "Experiment 7 flooded soil treatment: tamagayatsuri", "settings": "evaluated 4 weeks after treatment", "from_the_text": "(§1) Paddy soil (clay loam) was put into a pot so as to have a surface area of 1/15500 ares. Uniformly mixed seeds of several kinds of weeds, viz., nobie (barnyardgrass, Echinochloa spp.), broad-leaved weeds, hotarui (bulrush, Scirpus juncoides) and tamagayatsuri (small-flowered umbrellaplant, Cyperus difformis), were sown in the surface layer of the soil in each pot, and then paddy rice seedlings at the two- or three-leaved stage were transplanted into each pot to a depth of 2 cm, and water was fed into each pot so as to provide a 3 cm deep water layer on the soil surface. After 3 days, in other words at the initial stage of germination of nobie (barnyardgrass, Echinochloa spp.), a predetermined amount of a selected compound obtained in a manner analogous to Example 14 in the form of diluted aqueous solution was dropped into the water layer in each pot. After that, the pots were kept in a glass chamber to allow the paddy rice and the weeds to grow, and after the lapse of 4 weeks from the treatment with the selected compounds, the herbicidal effects and the degree of injury to the paddy rice were evaluated. The evaluation of the herbicidal effects was similarly conducted as that of Experiment 1."}, "[2]": {"system": "hotarui (bulrush, Scirpus juncoides)", "experiment": "Experiment 7 flooded soil treatment: hotarui", "settings": "evaluated 4 weeks after treatment", "from_the_text": "as §1"}, "[3]": {"system": "nobie (barnyardgrass, Echinochloa spp.)", "experiment": "Experiment 7 flooded soil treatment: nobie", "settings": "evaluated 4 weeks after treatment", "from_the_text": "as §1"}, "rice": {"system": "rice", "experiment": "Experiment 8 foliage treatment: rice", "settings": "foliage spray of wettable powder suspension, evaluated 4 weeks after treatment", "description": "(§2) Upon seedling stage (two- or three-leaved stage) of rice, cockspur (Panicum crus-galli), garden radish, aobiyu (slender amaranth, Amaranthus viridis) and mehishiba (henry crabgrass, Digitaria cliaris) which were grown on a cultivated soil put in pots of 1/15500 ares, a selected compound obtained in a manner analogous to Example 14, in suspended wettable powder, was sprayed to each plant. After that, the pots were kept in a glass chamber to allow each plant to grow, and after the lapse of 4 weeks from the treatment with the selected compounds the herbicidal effects were evaluated. The evaluation of the herbicidal effects was similarly conducted as to that of Experiment 1."}, "garden radish": {"system": "garden radish", "experiment": "Experiment 8 foliage treatment: garden radish", "settings": "foliage spray of wettable powder suspension, evaluated 4 weeks after treatment", "description": "as §2"}, "[4]": {"system": "cockspur (Panicum crus-galli)", "experiment": "Experiment 8 foliage treatment: cockspur", "settings": "foliage spray of wettable powder suspension, evaluated 4 weeks after treatment", "description": "as §2"}, "[5]": {"system": "mehishiba (henry crabgrass, Digitaria cliaris)", "experiment": "Experiment 8 foliage treatment: mehishiba", "settings": "foliage spray of wettable powder suspension, evaluated 4 weeks after treatment", "description": "as §2"}, "broad-leaved weeds": {"system": "broad-leaved weeds", "experiment": "Experiment 7 flooded soil treatment: broad-leaved weeds", "settings": "evaluated 4 weeks after treatment", "from_the_text": "as §1"}, "[6]": {"system": "aobiyu (slender amaranth, Amaranthus viridis)", "experiment": "Experiment 8 foliage treatment: aobiyu", "settings": "foliage spray of wettable powder suspension, evaluated 4 weeks after treatment", "description": "as §2"}, "paddy rice": {"system": "paddy rice", "experiment": "Experiment 7 flooded soil treatment: injury to paddy rice", "settings": "evaluated 4 weeks after treatment", "from_the_text": "as §1"}}, "data": [{"compound": "C#CC(C)Oc1cc(N(C(=O)C2=C(C(=O)OCCC)CCCC2)C(=O)c2cccs2)c(F)cc1Cl", "note": "(centres unmarked) [compound 92]", "values": [{"measurement": "Herbicidal Effect tamagayatsuri", "setting": "[1]; 6.25 g/10a", "value": 4}, {"measurement": "Herbicidal Effect tamagayatsuri", "setting": "[1]; 12.5 g/10a", "value": 5}, {"measurement": "Herbicidal Effect hotarui", "setting": "[2]; 6.25 g/10a", "value": 4}, {"measurement": "Herbicidal Effect hotarui", "setting": "[2]; 12.5 g/10a", "value": 4}, {"measurement": "Herbicidal Effect nobie", "setting": "[3]; 6.25 g/10a", "value": 5}, {"measurement": "Herbicidal Effect nobie", "setting": "[3]; 12.5 g/10a", "value": 5}, {"measurement": "Herbicidal Effect rice", "setting": "rice; 40 g/10a", "value": 1}, {"measurement": "Herbicidal Effect rice", "setting": "rice; 80 g/10a", "value": 1}, {"measurement": "Herbicidal Effect garden radish", "setting": "garden radish; 40 g/10a", "value": 4}, {"measurement": "Herbicidal Effect garden radish", "setting": "garden radish; 80 g/10a", "value": 4}, {"measurement": "Herbicidal Effect cockspur", "setting": "[4]; 40 g/10a", "value": 1}, {"measurement": "Herbicidal Effect cockspur", "setting": "[4]; 80 g/10a", "value": 1}, {"measurement": "Herbicidal Effect mehishiba", "setting": "[5]; 40 g/10a", "value": 1}, {"measurement": "Herbicidal Effect mehishiba", "setting": "[5]; 80 g/10a", "value": 1}, {"measurement": "Herbicidal Effect broad-leaved weed", "setting": "broad-leaved weeds; 6.25 g/10a", "value": 5}, {"measurement": "Herbicidal Effect broad-leaved weed", "setting": "broad-leaved weeds; 12.5 g/10a", "value": 5}, {"measurement": "Herbicidal Effect aobiyu", "setting": "[6]; 40 g/10a", "value": 5}, {"measurement": "Herbicidal Effect aobiyu", "setting": "[6]; 80 g/10a", "value": 5}, {"measurement": "Injury of Paddy", "setting": "paddy rice; 6.25 g/10a", "value": 0}, {"measurement": "Injury of Paddy", "setting": "paddy rice; 12.5 g/10a", "value": 0}]}, {"compound": "C#CC(C)Oc1cc(N(C(=O)C2=C(C(=O)OCCCC)CCCC2)C(=O)c2cccs2)c(F)cc1Cl", "note": "(centres unmarked) [compound 93]", "values": [{"measurement": "Herbicidal Effect tamagayatsuri", "setting": "[1]; 6.25 g/10a", "value": 4}, {"measurement": "Herbicidal Effect tamagayatsuri", "setting": "[1]; 12.5 g/10a", "value": 4}, {"measurement": "Herbicidal Effect hotarui", "setting": "[2]; 6.25 g/10a", "value": 4}, {"measurement": "Herbicidal Effect hotarui", "setting": "[2]; 12.5 g/10a", "value": 4}, {"measurement": "Herbicidal Effect nobie", "setting": "[3]; 6.25 g/10a", "value": 5}, {"measurement": "Herbicidal Effect nobie", "setting": "[3]; 12.5 g/10a", "value": 5}, {"measurement": "Herbicidal Effect rice", "setting": "rice; 40 g/10a", "value": 1}, {"measurement": "Herbicidal Effect rice", "setting": "rice; 80 g/10a", "value": 1}, {"measurement": "Herbicidal Effect garden radish", "setting": "garden radish; 40 g/10a", "value": 4}, {"measurement": "Herbicidal Effect garden radish", "setting": "garden radish; 80 g/10a", "value": 5}, {"measurement": "Herbicidal Effect cockspur", "setting": "[4]; 40 g/10a", "value": 1}, {"measurement": "Herbicidal Effect cockspur", "setting": "[4]; 80 g/10a", "value": 1}, {"measurement": "Herbicidal Effect mehishiba", "setting": "[5]; 40 g/10a", "value": 1}, {"measurement": "Herbicidal Effect mehishiba", "setting": "[5]; 80 g/10a", "value": 1}, {"measurement": "Herbicidal Effect broad-leaved weed", "setting": "broad-leaved weeds; 6.25 g/10a", "value": 5}, {"measurement": "Herbicidal Effect broad-leaved weed", "setting": "broad-leaved weeds; 12.5 g/10a", "value": 5}, {"measurement": "Herbicidal Effect aobiyu", "setting": "[6]; 40 g/10a", "value": 5}, {"measurement": "Herbicidal Effect aobiyu", "setting": "[6]; 80 g/10a", "value": 5}, {"measurement": "Injury of Paddy", "setting": "paddy rice; 6.25 g/10a", "value": 0.5}, {"measurement": "Injury of Paddy", "setting": "paddy rice; 12.5 g/10a", "value": 0.5}]}, {"compound": "C#CC(C)Oc1cc(N(C(=O)C2=C(C(=O)OCCOC)CCCC2)C(=O)c2cccs2)c(F)cc1Cl", "note": "(centres unmarked) [compound 94]", "values": [{"measurement": "Herbicidal Effect tamagayatsuri", "setting": "[1]; 6.25 g/10a", "value": 5}, {"measurement": "Herbicidal Effect tamagayatsuri", "setting": "[1]; 12.5 g/10a", "value": 5}, {"measurement": "Herbicidal Effect hotarui", "setting": "[2]; 6.25 g/10a", "value": 5}, {"measurement": "Herbicidal Effect hotarui", "setting": "[2]; 12.5 g/10a", "value": 5}, {"measurement": "Herbicidal Effect nobie", "setting": "[3]; 6.25 g/10a", "value": 5}, {"measurement": "Herbicidal Effect nobie", "setting": "[3]; 12.5 g/10a", "value": 5}, {"measurement": "Herbicidal Effect rice", "setting": "rice; 40 g/10a", "value": 1}, {"measurement": "Herbicidal Effect rice", "setting": "rice; 80 g/10a", "value": 1}, {"measurement": "Herbicidal Effect garden radish", "setting": "garden radish; 40 g/10a", "value": 5}, {"measurement": "Herbicidal Effect garden radish", "setting": "garden radish; 80 g/10a", "value": 5}, {"measurement": "Herbicidal Effect cockspur", "setting": "[4]; 40 g/10a", "value": 1}, {"measurement": "Herbicidal Effect cockspur", "setting": "[4]; 80 g/10a", "value": 1}, {"measurement": "Herbicidal Effect mehishiba", "setting": "[5]; 40 g/10a", "value": 1}, {"measurement": "Herbicidal Effect mehishiba", "setting": "[5]; 80 g/10a", "value": 1}, {"measurement": "Herbicidal Effect broad-leaved weed", "setting": "broad-leaved weeds; 6.25 g/10a", "value": 5}, {"measurement": "Herbicidal Effect broad-leaved weed", "setting": "broad-leaved weeds; 12.5 g/10a", "value": 5}, {"measurement": "Herbicidal Effect aobiyu", "setting": "[6]; 40 g/10a", "value": 5}, {"measurement": "Herbicidal Effect aobiyu", "setting": "[6]; 80 g/10a", "value": 5}, {"measurement": "Injury of Paddy", "setting": "paddy rice; 6.25 g/10a", "value": 0.5}, {"measurement": "Injury of Paddy", "setting": "paddy rice; 12.5 g/10a", "value": 0.5}]}, {"compound": "C#CC(C)Oc1cc(N(C(=O)C2=C(C(=O)OC)CCCC2)C(=O)c2sccc2C)c(F)cc1Cl", "note": "(centres unmarked) [compound 95]", "values": [{"measurement": "Herbicidal Effect tamagayatsuri", "setting": "[1]; 6.25 g/10a", "value": 5}, {"measurement": "Herbicidal Effect tamagayatsuri", "setting": "[1]; 12.5 g/10a", "value": 5}, {"measurement": "Herbicidal Effect hotarui", "setting": "[2]; 6.25 g/10a", "value": 4}, {"measurement": "Herbicidal Effect hotarui", "setting": "[2]; 12.5 g/10a", "value": 4}, {"measurement": "Herbicidal Effect nobie", "setting": "[3]; 6.25 g/10a", "value": 5}, {"measurement": "Herbicidal Effect nobie", "setting": "[3]; 12.5 g/10a", "value": 5}, {"measurement": "Herbicidal Effect rice", "setting": "rice; 40 g/10a", "value": 1}, {"measurement": "Herbicidal Effect rice", "setting": "rice; 80 g/10a", "value": 1}, {"measurement": "Herbicidal Effect garden radish", "setting": "garden radish; 40 g/10a", "value": 4}, {"measurement": "Herbicidal Effect garden radish", "setting": "garden radish; 80 g/10a", "value": 4}, {"measurement": "Herbicidal Effect cockspur", "setting": "[4]; 40 g/10a", "value": 1}, {"measurement": "Herbicidal Effect cockspur", "setting": "[4]; 80 g/10a", "value": 1}, {"measurement": "Herbicidal Effect mehishiba", "setting": "[5]; 40 g/10a", "value": 1}, {"measurement": "Herbicidal Effect mehishiba", "setting": "[5]; 80 g/10a", "value": 1}, {"measurement": "Herbicidal Effect broad-leaved weed", "setting": "broad-leaved weeds; 6.25 g/10a", "value": 5}, {"measurement": "Herbicidal Effect broad-leaved weed", "setting": "broad-leaved weeds; 12.5 g/10a", "value": 5}, {"measurement": "Herbicidal Effect aobiyu", "setting": "[6]; 40 g/10a", "value": 5}, {"measurement": "Herbicidal Effect aobiyu", "setting": "[6]; 80 g/10a", "value": 5}, {"measurement": "Injury of Paddy", "setting": "paddy rice; 6.25 g/10a", "value": 0}, {"measurement": "Injury of Paddy", "setting": "paddy rice; 12.5 g/10a", "value": 0}]}]}
